Data: US11485751B2, “Apramycin derivatives” (WAYNE STATE UNIVERSITY, priority 2017, dated 2022)
Converted amounts (≈) assume the structure as drawn.

Key:
[1] = tested on: human cytosolic ribosomes; assay: in-vitro translation assay, human cytosolic ribosomes; type: biochemical
In short: (§1)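 Each ribosome preparation (bacterial, human chimeric as the mitochondrial model, rabbit reticulocyte as the cytosolic model) drives in-vitro translation with the test compound present. Inhibition of translation gives the IC50.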

[2] = tested on: AG163 E. coli APH(3′)-I; assay: Antibacterial activity, clinical isolate AG163; type: cell-based
Text: (§2) Minimal inhibitory concentrations (MIC) have been determined by broth microdilution assays (CLSI. Methods for Dilution Antimicrobial Susceptibility Tests for Bacteria That Grow Aerobically; Approved Standard—Tenth Edition. CLSI document M07-A10. Wayne, Pa.: Clinical and Laboratory Standards Institute; 2015.).
Table 4 and 5 show the antibacterial activity of the compounds of the invention against bacterial reference strains (table 4) and against representative clinical isolates (table 5).

[3] = tested on: clinical isolates carrying APH(3′)-VI; assay: MIC broth microdilution, APH(3′)-VI; type: cell-based; settings: IMM Univ. Zurich
Text: as §2
(§3) Minimal inhibitory concentrations (MICs, […]) against clinical isolates from Institute of Medical Microbiology, Univ. Zurich, and the IC50 values for bacterial, human mitochondrial and human cytosolic ribosomes are indicated.

[4] = tested on: clinical isolates carrying AAC(3)-IV; assay: MIC broth microdilution, AAC(3)-IV; type: cell-based; settings: clinical isolates, IMM Univ. Zurich; AAC(3)-IV; read-out: MIC AAC(3)-IV
In short: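 MICs obtained by broth microdilution following CLSI M07-A10, tested against clinical isolates from the Institute of Medical Microbiology, Univ. Zurich; values in μg/ml.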

[5] = tested on: AG038 MRSA; assay: Antibacterial activity, clinical isolate AG038; type: cell-based; design: unit not given here
In short: (§4)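 Reported as MIC; method was a CLSI-conforming microdilution in broth.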

[6] = tested on: clinical isolates carrying APH(3′)-III; assay: MIC broth microdilution, APH(3′)-III; type: cell-based; settings: IMM Univ. Zurich
Text: as §2, §3

[7] = tested on: Engineered E. coli pH424 armA; assay: Activity against G1405-methylated 16S-rRNA, E. coli pH424 armA; type: cell-based
In short: (§5)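 Read-out is the minimal inhibitory concentration, obtained in broth microdilution run according to CLSI guidelines (M07-A10).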

[8] = tested on: AG042 MRSA AAC(6′)-I ANT(4′)-I APH(2′); assay: Antibacterial activity, clinical isolate AG042; type: cell-based; design: unit not given here
In short: as §4

[9] = tested on: AG225, Acinetobacter baumannii pittii; assay: MIC reference strain AG225; type: cell-based; settings: Acinetobacter baumannii, reference strain; read-out: MIC AG225 A. baumannii
In short: (§6)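 CLSI-conform broth microdilution testing gives the minimal concentration preventing visible growth of these reference strains.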

[10] = tested on: clinical isolates carrying APH(3′)-I; assay: MIC broth microdilution, APH(3′)-I; type: cell-based; settings: IMM Univ. Zurich
Text: as §2, §3

[11] = tested on: AG031 P. aer. APH(3′)-II; assay: Antibacterial activity, clinical isolate AG031; type: cell-based; design: unit not given here
In short: as §4

[12] = tested on: AG039 MRSA AAC(6′)-I ANT(4′)-I; assay: Antibacterial activity, clinical isolate AG039; type: cell-based
In short: as §4

[13] = tested on: AG290, Enterobacter cloacae; assay: MIC reference strain AG290; type: cell-based; settings: Enterobacter cloacae; reference strain; read-out: MIC AG290 E. cloacae
In short: as §6

[14] = tested on: Engineered E. coli pH430 WT; assay: Activity, engineered E. coli pH430 WT; type: cell-based; settings: wild type
In short: as §5

[15] = tested on: AG001 E. coli WT; assay: Antibacterial activity, clinical isolate AG001; type: cell-based; design: unit not given here
In short: as §4

[16] = tested on: Engineered E. coli AG103 armA; assay: Activity against G1405-methylated 16S-rRNA, E. coli AG103 armA; type: cell-based
Text: as §2

[17] = tested on: AG212, Escherichia coli ATCC25922; assay: MIC reference strain AG212; type: cell-based; settings: Escherichia coli; reference strain ATCC25922; read-out: MIC AG212 E. coli
In short: as §6

[18] = tested on: AG033 P. aer. APH(3′)-II AAC(6′)-I; assay: Antibacterial activity, clinical isolate AG033; type: cell-based; design: unit not given here
In short: as §4

[19] = tested on: human mitochondrial ribosomes; assay: in-vitro translation assay, human mitochondrial (human chimeric) ribosomes; type: biochemical
In short: as §1

[20] = tested on: AG173 E. coli AAC(3)-IV; assay: Antibacterial activity, clinical isolate AG173; type: cell-based
In short: as §4

[21] = tested on: AG003 E. coli AAC(3)-II; assay: Antibacterial activity, clinical isolate AG003; type: cell-based
In short: as §4

[22] = tested on: AG032 P. aer. APH(3′)-II; assay: Antibacterial activity, clinical isolate AG032; type: cell-based; design: unit not given here
In short: as §4

[23] = tested on: AG220, Pseudomonas aeruginosa ATCC27853; assay: MIC reference strain AG220; type: cell-based; settings: Pseudomonas aeruginosa, ATCC27853, reference strain ATCC27853; read-out: MIC AG220 P. aeruginosa
In short: as §6

[24] = tested on: AG215, Klebsiella pneumonia; assay: MIC reference strain AG215; type: cell-based; settings: Klebsiella pneumoniae, reference strain; read-out: MIC AG215 K. pneumonia
In short: as §6

[25] = tested on: Engineered E. coli pH425 rmtB; assay: Activity against G1405-methylated 16S-rRNA, E. coli pH425 rmtB; type: cell-based
In short: as §5

[26] = tested on: AG055 E. coli WT; assay: Antibacterial activity, clinical isolate AG055; type: cell-based; design: unit not given here
In short: as §4

[27] = tested on: Engineered E. coli pH426 rmtC; assay: Activity against G1405-methylated 16S-rRNA, E. coli pH426 rmtC; type: cell-based
In short: as §5

[28] = tested on: bacterial ribosomes; assay: in-vitro translation assay, bacterial ribosomes; type: biochemical
In short: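 Inhibitory potency was determined as IC50 in in-vitro translation systems based on bacterial ribosomes, human chimeric (mitochondrial-type) ribosomes or rabbit reticulocyte (cytosolic) ribosomes.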

[29] = tested on: Engineered E. coli pH427 rmtF; assay: Activity against G1405-methylated 16S-rRNA, E. coli pH427 rmtF; type: cell-based
In short: as §5

[30] = tested on: clinical isolates carrying APH(3′)-II; assay: MIC broth microdilution, APH(3′)-II; type: cell-based; settings: clinical isolates, IMM Univ. Zurich; APH(3′)-II; read-out: MIC APH(3′)-II
Text: as §2, §3

[31] = tested on: SZ380, Mycobacterium smegmatis; assay: MIC reference strain SZ380; type: cell-based; settings: Mycolicibacterium smegmatis, reference strain; read-out: MIC SZ380 M. smegmatis
In short: as §6

[32] = tested on: ATCC19977 M. abcessus; assay: MIC reference strain ATCC19977; type: cell-based; settings: read-out: MIC ATCC19977 M. abcessus
In short: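 Values are minimal inhibitory concentrations, obtained by serial dilution of compound in broth according to CLSI guidance for aerobes.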

CNC1C(OC2OC(CO)C(N)C(O)C2O)OC2CC(N)C(OC3C(N)CC(N)C(O)C3OC3OCC(O)C3O)OC2C1O (stereo not drawn) [DC146, 5-O-β-D—(Erythrofuranosyl) apramycin]
IC50 [1]: 321 µM
Antibacterial activity AG163 E. coli APH(3′)-I [2]: 8
MIC [3]: 8 µg/mL (≈ 12.5 µM)
MIC [4]: 32 µg/mL (≈ 49.9 µM)
Antibacterial activity AG038 MRSA [5]: 16-32
MIC [6]: 1 µg/mL (≈ 1.56 µM)
Activity E. coli pH424 armA [7]: 4
Antibacterial activity AG042 MRSA AAC(6′)-I ANT(4′)-I APH(2′) [8]: 16
MIC [9]: 8 µg/mL
MIC [10]: 4 µg/mL (≈ 6.23 µM)
Antibacterial activity AG031 P. aer. APH(3′)-II [11]: 64
Antibacterial activity AG039 MRSA AAC(6′)-I ANT(4′)-I [12]: 16-32
MIC [13]: 4 µg/mL
Activity E. coli pH430 WT [14]: 8
Antibacterial activity AG001 E. coli WT [15]: 16
Activity E. coli AG103 armA [16]: 1
MIC [17]: 16 µg/mL
Antibacterial activity AG033 P. aer. APH(3′)-II AAC(6′)-I [18]: 64-128
IC50 [19]: 215 µM
Antibacterial activity AG173 E. coli AAC(3)-IV [20]: 128
Antibacterial activity AG003 E. coli AAC(3)-II [21]: 16
Antibacterial activity AG032 P. aer. APH(3′)-II [22]: 64
MIC [23]: 32 µg/mL
MIC [24]: 4 µg/mL
Activity E. coli pH425 rmtB [25]: 4
Antibacterial activity AG055 E. coli WT [26]: 16
Activity E. coli pH426 rmtC [27]: 8
IC50 [28]: 0.09 µM
Activity E. coli pH427 rmtF [29]: 4
MIC [30]: 4 µg/mL (≈ 6.23 µM)

CNC1C(OC2OC(CO)C(N)C(O)C2O)OC2CC(N)C(OC3C(N)CC(N)C(O)C3OC3OC(CNC=O)C(O)C3O)OC2C1O [DC177, 5-O-β-(5′″-Formamido-5′″-deoxy-D-ribefuranosyl) apramycin]
IC50 [1]: > 500 µM
Antibacterial activity AG163 E. coli APH(3′)-I [2]: 8
MIC [3]: 8 µg/mL (≈ 11.4 µM)
MIC [4]: > 32 µg/mL
Antibacterial activity AG038 MRSA [5]: 32
MIC [6]: 2 µg/mL (≈ 2.86 µM)
Activity E. coli pH424 armA [7]: 8
Antibacterial activity AG042 MRSA AAC(6′)-I ANT(4′)-I APH(2′) [8]: 32
MIC [9]: 16 µg/mL
MIC [10]: 4 µg/mL (≈ 5.72 µM)
Antibacterial activity AG031 P. aer. APH(3′)-II [11]: >32
MIC [31]: 2 µg/mL
Antibacterial activity AG039 MRSA AAC(6′)-I ANT(4′)-I [12]: 16-32
MIC [32]: 16 µg/mL (≈ 22.9 µM)
MIC [13]: 8 µg/mL
Activity E. coli pH430 WT [14]: 8
Antibacterial activity AG001 E. coli WT [15]: 8
Activity E. coli AG103 armA [16]: 2-4
MIC [17]: 8 µg/mL
Antibacterial activity AG033 P. aer. APH(3′)-II AAC(6′)-I [18]: >32
IC50 [19]: 399 µM
Antibacterial activity AG173 E. coli AAC(3)-IV [20]: >64
Antibacterial activity AG003 E. coli AAC(3)-II [21]: 8
Antibacterial activity AG032 P. aer. APH(3′)-II [22]: >32
MIC [23]: > 64 µg/mL
MIC [24]: 4 µg/mL
Activity E. coli pH425 rmtB [25]: 8
Antibacterial activity AG055 E. coli WT [26]: 16
Activity E. coli pH426 rmtC [27]: 16
IC50 [28]: 0.23 µM
Activity E. coli pH427 rmtF [29]: 8
MIC [30]: 8 µg/mL (≈ 11.4 µM)
